From patent publication US12419961B2 (CNPharm Co., Ltd., priority 2021, dated 2025)

Legend:
pancreatic cancer = pancreatic cancer patients, cited from earlier work
[1] = tested on: PANC-1 pancreatic carcinoma tumors; assay: anticancer efficacy in mouse xenograft model (tumor growth); format: in vivo, BALB/c mice
Protocol: (§1) Normally, non-treated group is injected with saline (NaCl solution) in anti-cancer efficacy study.

L929 = assay: cell viability assay on L929 normal cell line; format: cell-based; settings: FIG. 5B; normal mouse fibroblast cell line
[2] = weight monitoring in mouse xenograft model; format: in vivo, BALB/c mice; settings: FIG. 6B; PANC-1 model; dose: docetaxel standard, 20 mg/kg
Protocol: as §1

Compound: O=c1[nH]cc(F)c(=O)[nH]1 [5-FU, 5-fluorouracil]
- survival rate, gemcitabine compared to 5-FU (pancreatic cancer): 4.41 months
- median overall survival rate compared to supportive care (pancreatic cancer; supportive care 2.5 months): 6 moths

Compound: Nc1ccn([C@@H]2O[C@H](CO)[C@@H](O)C2(F)F)c(=O)n1 [gemcitabine]
- survival rate, gemcitabine compared to 5-FU (pancreatic cancer): 5.65 months

Compound: docetaxel-aconitic anhydride conjugate [A3Tx]
- tumor growth (mean tumor volume) ([1]; FIG. 6A, PANC-1 model, dose: docetaxel standard, 20 mg/kg, P<0.01 vs negative control): significant inhibition in tumor growth
- tumor growth (mean tumor volume) ([1]; FIG. 6A, PANC-1 model, dose: docetaxel standard, 20 mg/kg, P<0.01 vs negative control, listed as A3TX): significantly delays tumor growth

Compound: CC(=O)O[C@@]12CO[C@@H]1C[C@H](O)[C@@]1(C)C(=O)[C@H](O)C3=C(C)[C@@H](OC(=O)[C@H](O)[C@@H](NC(=O)OC(C)(C)C)c4ccccc4)C[C@@](O)([C@@H](OC(=O)c4ccccc4)[C@H]21)C3(C)C [DTX, docetaxel]
- tumor growth (mean tumor volume) ([1]; FIG. 6A; PANC-1 model; dose: docetaxel standard, 20 mg/kg; P<0.01 vs negative control): significant inhibition in tumor growth
- cytotoxicity toward normal cell line L929 (L929): low cytotoxicity
- body weight loss [2]: significant body weight loss was observed
